The supplement of paper PMC10307832

Assays:
Test in all cases: relative viability (nuclei count vs DMSO), 5 days (fraction); higher = more cells survive
[1] = system: NCI-H1734
In short: (§1)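 Five library-drug doses in √10 steps were combined with a fixed anchor-drug dose, or a single drug was given alone, by pin tool to lung cancer cell lines in 1536-well plates the day after seeding. Nuclei were stained and counted after 5 days. Relative viability is the nuclei count in treated wells over that in vehicle wells, taken as the median of duplicate plates.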

[2] = system: NCI-H647
In short: as §1

[3] = system: H3255
In short: as §1

[4] = system: NCI-H2009
In short: as §1

[5] = system: LCLC-97TM1
In short: as §1

[6] = system: NCI-H2126
In short: as §1

[7] = system: NCI-H727
In short: as §1

[8] = system: NCI-H1993
In short: as §1

[9] = system: SW 1573
In short: as §1

[10] = system: PC-14
In short: as §1

[11] = system: LXF-289
In short: as §1

[12] = system: NCI-H2347
In short: as §1

[13] = system: EMC-BAC-2
In short: as §1

[14] = system: EPLC-272H
In short: as §1

[15] = system: NCI-H661
In short: as §1

[16] = system: HOP-62
In short: as §1

[17] = system: SK-LU-1
In short: as §1

[18] = system: NCI-H322M
In short: as §1

[19] = system: NCI-H2085
In short: as §1

[20] = system: NCI-H2023
In short: as §1

[21] = system: NCI-H1915
In short: as §1

Structure (SMILES): Cc1sc2c(c1C)C(c1ccc(Cl)cc1)=N[C@@H](CC(=O)OC(C)(C)C)c1nnc(C)n1-2 [JQ1] + Cc1cc(Nc2cc(N3CCN(C)CC3)nc(Sc3ccc(NC(=O)C4CC4)cc3)n2)n[nH]1 [Tozasertib] (partner 0.1 µM)
- relative viability ([1]; first compound 0.04 µM): 0.259
- relative viability ([1]; first compound 0.1265 µM): 0.209
- relative viability ([1]; first compound 0.4 µM): 0.215
- relative viability ([1]; first compound 1.265 µM): 0.204
- relative viability ([1]; first compound 4 µM): 0.212
- relative viability ([2]; first compound 0.04 µM): 0.353
- relative viability ([2]; first compound 0.1265 µM): 0.203
- relative viability ([2]; first compound 0.4 µM): 0.202
- relative viability ([2]; first compound 1.265 µM): 0.0994
- relative viability ([2]; first compound 4 µM): 0.0445
- relative viability ([3]; first compound 0.04 µM): 0.65
- relative viability ([3]; first compound 0.1265 µM): 0.625
- relative viability ([3]; first compound 0.4 µM): 0.64
- relative viability ([3]; first compound 1.265 µM): 0.426
- relative viability ([3]; first compound 4 µM): 0.204
- relative viability ([4]; first compound 0.04 µM): 0.697
- relative viability ([4]; first compound 0.1265 µM): 0.414
- relative viability ([4]; first compound 0.4 µM): 0.385
- relative viability ([4]; first compound 1.265 µM): 0.199
- relative viability ([4]; first compound 4 µM): 0.187
- relative viability ([5]; first compound 0.04 µM): 0.197
- relative viability ([5]; first compound 0.1265 µM): 0.223
- relative viability ([5]; first compound 0.4 µM): 0.171
- relative viability ([5]; first compound 1.265 µM): 0.116
- relative viability ([5]; first compound 4 µM): 0.146
- relative viability ([6]; first compound 0.04 µM): 0.8
- relative viability ([6]; first compound 0.1265 µM): 0.849
- relative viability ([6]; first compound 0.4 µM): 0.607
- relative viability ([6]; first compound 1.265 µM): 0.419
- relative viability ([6]; first compound 4 µM): 0.31
- relative viability ([7]; first compound 0.04 µM): 0.714
- relative viability ([7]; first compound 0.1265 µM): 0.516
- relative viability ([7]; first compound 0.4 µM): 0.459
- relative viability ([7]; first compound 1.265 µM): 0.397
- relative viability ([7]; first compound 4 µM): 0.387
- relative viability ([8]; first compound 0.04 µM): 0.509
- relative viability ([8]; first compound 0.1265 µM): 0.62
- relative viability ([8]; first compound 0.4 µM): 0.513
- relative viability ([8]; first compound 1.265 µM): 0.424
- relative viability ([8]; first compound 4 µM): 0.489
- relative viability ([9]; first compound 0.04 µM): 0.182
- relative viability ([9]; first compound 0.1265 µM): 0.137
- relative viability ([9]; first compound 0.4 µM): 0.181
- relative viability ([9]; first compound 1.265 µM): 0.141
- relative viability ([9]; first compound 4 µM): 0.16
- relative viability ([10]; first compound 0.04 µM): 0.593
- relative viability ([10]; first compound 0.1265 µM): 0.385
- relative viability ([10]; first compound 0.4 µM): 0.314
- relative viability ([10]; first compound 1.265 µM): 0.125
- relative viability ([10]; first compound 4 µM): 0.0518
- relative viability ([11]; first compound 0.04 µM): 0.171
- relative viability ([11]; first compound 0.1265 µM): 0.134
- relative viability ([11]; first compound 0.4 µM): 0.0871
- relative viability ([11]; first compound 1.265 µM): 0.0699
- relative viability ([11]; first compound 4 µM): 0.0528
- relative viability ([12]; first compound 0.04 µM): 0.539
- relative viability ([12]; first compound 0.1265 µM): 0.554
- relative viability ([12]; first compound 0.4 µM): 0.489
- relative viability ([12]; first compound 1.265 µM): 0.308
- relative viability ([12]; first compound 4 µM): 0.237
- relative viability ([13]; first compound 0.04 µM): 0.248
- relative viability ([13]; first compound 0.1265 µM): 0.235
- relative viability ([13]; first compound 0.4 µM): 0.221
- relative viability ([13]; first compound 1.265 µM): 0.174
- relative viability ([13]; first compound 4 µM): 0.174
- relative viability ([14]; first compound 0.04 µM): 0.418
- relative viability ([14]; first compound 0.1265 µM): 0.24
- relative viability ([14]; first compound 0.4 µM): 0.373
- relative viability ([14]; first compound 1.265 µM): 0.257
- relative viability ([14]; first compound 4 µM): 0.258
- relative viability ([15]; first compound 0.04 µM): 0.37
- relative viability ([15]; first compound 0.1265 µM): 0.486
- relative viability ([15]; first compound 0.4 µM): 0.37
- relative viability ([15]; first compound 1.265 µM): 0.435
- relative viability ([15]; first compound 4 µM): 0.401
- relative viability ([16]; first compound 0.04 µM): 0.361
- relative viability ([16]; first compound 0.1265 µM): 0.305
- relative viability ([16]; first compound 0.4 µM): 0.192
- relative viability ([16]; first compound 1.265 µM): 0.122
- relative viability ([16]; first compound 4 µM): 0.122
- relative viability ([17]; first compound 0.04 µM): 0.282
- relative viability ([17]; first compound 0.1265 µM): 0.27
- relative viability ([17]; first compound 0.4 µM): 0.249
- relative viability ([17]; first compound 1.265 µM): 0.0708
- relative viability ([17]; first compound 4 µM): 0.0741
- relative viability ([18]; first compound 0.04 µM): 0.445
- relative viability ([18]; first compound 0.1265 µM): 0.443
- relative viability ([18]; first compound 0.4 µM): 0.427
- relative viability ([18]; first compound 1.265 µM): 0.362
- relative viability ([18]; first compound 4 µM): 0.375
- relative viability ([19]; first compound 0.04 µM): 0.761
- relative viability ([19]; first compound 0.1265 µM): 0.727
- relative viability ([19]; first compound 0.4 µM): 0.63
- relative viability ([19]; first compound 1.265 µM): 0.414
- relative viability ([19]; first compound 4 µM): 0.328
- relative viability ([20]; first compound 0.04 µM): 0.354
- relative viability ([20]; first compound 0.1265 µM): 0.308
- relative viability ([20]; first compound 0.4 µM): 0.186
- relative viability ([20]; first compound 1.265 µM): 0.1
- relative viability ([20]; first compound 4 µM): 0.0918
- relative viability ([21]; first compound 0.04 µM): 0.439
- relative viability ([21]; first compound 0.1265 µM): 0.344
- relative viability ([21]; first compound 0.4 µM): 0.325
- relative viability ([21]; first compound 1.265 µM): 0.218
- relative viability ([21]; first compound 4 µM): 0.15
